Assay results: US10357036B2, “Compounds for controlling arthropods” (priority 2015, dated 2019)

Tests used:
Ctenocephalides felis [1] = assay: Ctenocephalides felis in vitro contact test with adult cat fleas; type: in vivo; details: application rate 5 μg/cm^2 (=500 g/ha); after 48 h; dead or moribund fleas
Method: For the coating of the test tubes, 9 mg of active ingredient are first dissolved in 1 ml of acetone p.a. and then diluted to the desired concentration with acetone p.a. 250 μl of the solution are distributed homogeneously on the inner walls and the base of a 25 ml glass tube by turning and rocking on an orbital shaker (rocking rotation at 30 rpm for 2 h). With 900 ppm of active ingredient solution and internal surface area 44.7 cm^2, given homogeneous distribution, an area-based dose of 5 μg/cm^2 is achieved.
After the solvent has evaporated off, the tubes are populated with 5-10 adult cat fleas (Ctenocephalides felis), sealed with a perforated plastic lid and incubated in a horizontal position at room temperature and ambient humidity. After 48 h, efficacy is determined. To this end, the tubes are stood upright and the fleas are knocked to the base of the tube. Fleas which remain motionless at the base or move in an uncoordinated manner are considered to be dead or moribund.
100% efficacy means that all the fleas were dead or moribund. 0% efficacy means that no fleas were harmed.

Boophilus microplus = Boophilus microplus injection test; type: in vivo; details: 20 μg/animal; assessed after 7 days
Method: (§1) • Solvent: dimethyl sulfoxide
1 μl of the active ingredient solution is injected into the abdomen of 5 engorged adult female cattle ticks (Boophilus microplus). The animals are transferred into dishes and kept in a climate-controlled room.

Ctenocephalides felis [2] = assay: Ctenocephalides felis oral test; type: in vivo; details: 100 ppm in citrated cattle blood; after 2 days
Spodoptera frugiperda = Spodoptera frugiperda spray test; type: in vivo; details: 100 g/ha; after 7 days
Phaedon cochleariae = Phaedon cochleariae spray test; details: 100 g/ha; after 7 days
Tetranychus urticae = Tetranychus urticae spray test, OP-resistant (bean leaf discs); type: in vivo; details: 100 g/ha; after 6 days
Method: (§2) After 6 days, the efficacy in % is determined.

Myzus persicae = Myzus persicae spray test (Chinese cabbage leaf discs); type: in vivo; details: 100 g/ha; after 6 days
Method: as §2

Musca domestica = Musca domestica test; type: in vivo; details: 100 ppm; adult houseflies; after 2 days
Method: as §1
To produce a suitable active ingredient formulation, 10 mg of active ingredient are mixed with 0.5 ml of dimethyl sulfoxide, and the concentrate is diluted with water to the desired concentration.
Vessels containing a sponge treated with sugar solution and the active ingredient formulation of the desired concentration are populated with 10 adult houseflies (Musca domestica).

Rhipicephalus sanguineus = Rhipicephalus sanguineus in vitro contact test with adult brown dog ticks; type: in vivo; details: after 48 h
In short: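 Efficacy, as % of ticks dead or moribund, was judged 48 h after placing 5-10 adult brown dog ticks in acetone-coated tubes (5 μg/cm^2 from 900 ppm) kept dark at room temperature. Ticks unable to climb away from a 45-50° C hotplate within 5 min counted as affected.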

[3] = tested on: cattle ticks (Boophilus microplus) Parkhurst strain, SP-resistant; assay: Boophilus microplus dip test; type: in vivo; details: 100 ppm; assessed after 7 days
Method: • Test animals: cattle ticks (Boophilus microplus) Parkhurst strain, SP-resistant • Solvent: dimethyl sulfoxide
10 mg of active ingredient are dissolved in 0.5 ml of dimethyl sulfoxide. To produce a suitable formulation, the active ingredient solution is diluted with water to the concentration desired in each case.
This active ingredient formulation is pipetted into tubes. 8-10 engorged adult female cattle ticks (Boophilus microplus) are transferred into a further tube with holes. The tube is immersed into the active ingredient formulation, and all the ticks are completely wetted. After the liquid has run out, the ticks are transferred on filter discs into plastic dishes and stored in a climate-controlled room.
Efficacy is assessed after 7 days by laying of fertile eggs. Eggs which are not visibly fertile are stored in a climate-controlled cabinet until the larvae hatch after about 42 days. An efficacy of 100% means that none of the ticks has laid any fertile eggs; 0% means that all the eggs are fertile.

[4] = application rate 5 μg/cm^2 (=500 g/ha), dead or moribund ticks

Compound | efficacy (Ctenocephalides felis [1]) | efficacy (laying of fertile eggs) (Boophilus microplus) | efficacy (rate of extermination) (Ctenocephalides felis [2]) | efficacy (Spodoptera frugiperda) | efficacy (Phaedon cochleariae) | efficacy (Tetranychus urticae) | efficacy (Myzus persicae) | efficacy (rate of extermination) (Musca domestica) | efficacy (Rhipicephalus sanguineus; [4]) | efficacy (laying of fertile eggs) [3] | efficacy (Rhipicephalus sanguineus; application rate 1 μg/cm^2 (=100 g/ha))
CC(=O)N(C)Cc1cc(-c2cnn(-c3c(Cl)cc(C(F)(C(F)(F)F)C(F)(F)F)cc3OC(F)(F)F)c2)cnc1Cl [Ia-136] | 100% | 100% | 100% | 100% | 100% | 100% | 100% | 100% |  |  | 
CC(=O)NCc1cc(-c2cnn(-c3c(C)cc(C(F)(C(F)(F)F)C(F)(F)F)cc3Cl)c2)ccc1C [Ia-75] | 100% | 100% | 100% | 100% | 100% | 100% |  | 100% | 100% | 100% | 
CC(=O)NCc1cc(-c2cnn(-c3c(Cl)cc(C(F)(C(F)(F)F)C(F)(F)F)cc3C(F)(F)F)c2)ccc1C [Ia-79] | 100% | 100% | 100% | 100% |  | 100% | 90% | 100% | 100% | 100% | 
CC(=O)NCc1c(F)ccc(-c2cnn(-c3c(Cl)cc(C(F)(C(F)(F)F)C(F)(F)F)cc3Cl)c2)c1F [Ia-149] | 100% | 100% | 100% | 100% | 100% | 100% | 90% | 100% |  |  | 
CC(=O)NCc1cc(-c2cnn(-c3c(Cl)cc(C(F)(C(F)(F)F)C(F)(F)F)cc3C#N)c2)ccc1C [Ia-96] |  | 100% | 100% | 100% |  | 100% |  |  |  | 90% | 100%
CCC(=O)NCc1cc(-c2cnn(-c3c(Cl)cc(C(F)(C(F)(F)F)C(F)(F)F)cc3C(F)F)c2)ccc1F [Ia-23] | 100% | 100% | 100% | 100% | 100% | 100% | 90% | 100% | 100% | 100% | 
CCC(=O)N(C)Cc1cc(-c2cnn(-c3c(Cl)cc(C(F)(C(F)(F)F)C(F)(F)F)cc3Cl)c2)cnc1Cl [Ia-134] | 100% | 100% | 100% | 100% | 100% | 100% | 100% | 100% |  |  | 
CC(=O)NCc1c(F)ccc(-c2cnn(-c3c(Cl)cc(C(F)(C(F)(F)F)C(F)(F)F)cc3C(F)(F)F)c2)c1F [Ia-147] | 100% | 100% | 100% | 100% | 100% | 100% | 90% | 100% | 100% |  | 
CC(=O)NCc1cc(-c2cnn(-c3c(Cl)cc(C(F)(C(F)(F)F)C(F)(F)F)cc3C(F)F)c2)cnc1Cl [Ia-145] |  | 100% | 100% | 100% | 100% | 100% | 90% | 100% |  | 100% | 
CC(=O)NCc1c(F)ccc(-c2cnn(-c3c(Cl)cc(C(F)(C(F)(F)F)C(F)(F)F)cc3C(F)F)c2)c1F [Ia-142] | 100% | 100% | 100% | 100% | 100% | 100% | 90% | 100% | 80% | 80% | 
CCC(=O)NCc1cc(-c2cnn(-c3c(Cl)cc(C(F)(C(F)(F)F)C(F)(F)F)cc3C(F)(F)F)c2)ccc1F [Ia-83] | 100% | 100% | 100% | 100% | 100% | 90% |  | 100% | 100% | 80% | 
CC(=O)NCc1cc(-c2cnn(-c3c(Cl)cc(C(F)(C(F)(F)F)C(F)(F)F)cc3C(F)F)c2)ccc1Cl [Ia-106] |  | 100% | 100% | 100% | 100% | 100% |  | 100% |  | 100% | 
CCC(=O)NCc1cc(-c2cnn(-c3c(C)cc(C(F)(C(F)(F)F)C(F)(F)F)cc3C)c2)ccc1Cl [Ia-93] | 100% | 100% | 100% | 100% | 100% | 100% |  | 100% | 100% | 95% | 
CCC(=O)NCc1cc(-c2cnn(-c3c(Cl)cc(C(F)(C(F)(F)F)C(F)(F)F)cc3C(F)(F)F)c2)ccc1C [Ia-80] | 100% | 100% | 100% | 100% | 83% | 100% | 90% | 100% | 100% |  | 
CC(=O)NCc1cc(-c2cnn(-c3c(C)cc(C(F)(C(F)(F)F)C(F)(F)F)cc3Cl)c2)ccc1Cl [Ia-84] |  | 100% | 100% | 100% | 100% | 100% | 90% | 100% |  | 100% | 
CCC(=O)NCc1cc(-c2cnn(-c3c(C)cc(C(F)(C(F)(F)F)C(F)(F)F)cc3Cl)c2)ccc1C [Ia-76] | 100% | 100% | 100% | 100% | 100% | 100% | 90% | 100% | 100% |  | 
CCC(=O)NCc1cc(-c2cnn(-c3c(Cl)cc(C(F)(C(F)(F)F)C(F)(F)F)cc3C(F)F)c2)ccc1Cl [Ia-115] | 100% | 100% | 100% | 100% | 100% | 100% |  | 100% | 100% | 100% | 
CC(=O)NCc1cc(-c2cnn(-c3c(Cl)cc(C(F)(C(F)(F)F)C(F)(F)F)cc3Br)c2)ccc1Cl [Ia-91] |  | 100% | 100% | 100% | 100% | 100% |  | 100% |  | 80% | 
